In the NIST ThermoML archive (doi:10.1021/acs.jced.7b01053):

Experiment: mn = molality of the nth substance listed, in mol/kg
Details: 293 K, 100 kPa, Liquid, Alternating current cell with electrodes

CCC(=O)[O-].OCC[NH2+]CCO [bis(2-hydroxyethyl)ammonium propanoate] + O
Details | electrical conductivity [S/m]
m1 = 0.01926 | 0.109
m1 = 0.01974 | 0.104
m1 = 0.03749 | 0.196
m1 = 0.0377 | 0.192
m1 = 0.05722 | 0.296
m1 = 0.05727 | 0.296
m1 = 0.07596 | 0.375
m1 = 0.0761 | 0.365
m1 = 0.0957 | 0.456
m1 = 0.09617 | 0.447
m1 = 0.1142 | 0.528
m1 = 0.1152 | 0.519
m1 = 0.1335 | 0.601
m1 = 0.135 | 0.596
m1 = 0.1519 | 0.67
m1 = 0.1542 | 0.668
m1 = 0.1707 | 0.737
m1 = 0.1718 | 0.725
m1 = 0.1845 | 0.785
m1 = 0.1898 | 0.798
m1 = 0.2029 | 0.849
m1 = 0.2071 | 0.875
m1 = 0.22 | 0.901
m1 = 0.2243 | 0.942
m1 = 0.2375 | 0.955
m1 = 0.2406 | 0.997
m1 = 0.2535 | 1
m1 = 0.2571 | 1.03
m1 = 0.2696 | 1.05
m1 = 0.2722 | 1.08
m1 = 0.285 | 1.09
m1 = 0.2875 | 1.12
m1 = 0.3002 | 1.13
m1 = 0.3019 | 1.17
m1 = 0.3142 | 1.17
m1 = 0.3162 | 1.16
m1 = 0.3282 | 1.21
m1 = 0.3293 | 1.23
m1 = 0.3413 | 1.24
m1 = 0.3424 | 1.27
m1 = 0.3538 | 1.27
m1 = 0.3545 | 1.31
m1 = 0.3658 | 1.3
m1 = 0.366 | 1.35
m1 = 0.3774 | 1.39
m1 = 0.3775 | 1.32
m1 = 0.3881 | 1.41
m1 = 0.3884 | 1.36
m1 = 0.3986 | 1.44
m1 = 0.3992 | 1.39
m1 = 0.4083 | 1.47
m1 = 0.4092 | 1.41
m1 = 0.418 | 1.5
m1 = 0.419 | 1.44
m1 = 0.4271 | 1.53
m1 = 0.4283 | 1.46
m1 = 0.4361 | 1.55
m1 = 0.4372 | 1.49
m1 = 0.4445 | 1.57
m1 = 0.4457 | 1.51
m1 = 0.4527 | 1.6
m1 = 0.4539 | 1.53
m1 = 0.4617 | 1.56
m1 = 0.4692 | 1.58
m1 = 0.4759 | 1.59

CCCC(=O)O.OCCNCCO [diethanolamine butyrate] + O
Details | electrical conductivity [S/m]
m1 = 0.01798 | 0.077
m1 = 0.01805 | 0.09
m1 = 0.03516 | 0.166
m1 = 0.03577 | 0.142
m1 = 0.05397 | 0.257
m1 = 0.05531 | 0.207
m1 = 0.0709 | 0.318
m1 = 0.07433 | 0.284
m1 = 0.09407 | 0.346
m1 = 0.09424 | 0.389
m1 = 0.1085 | 0.453
m1 = 0.1122 | 0.403
m1 = 0.1275 | 0.519
m1 = 0.1316 | 0.486
m1 = 0.1455 | 0.581
m1 = 0.1496 | 0.538
m1 = 0.1638 | 0.641
m1 = 0.1683 | 0.577
m1 = 0.1807 | 0.696
m1 = 0.186 | 0.597
m1 = 0.1982 | 0.75
m1 = 0.2035 | 0.651
m1 = 0.2144 | 0.801
m1 = 0.2203 | 0.694
m1 = 0.231 | 0.87
m1 = 0.237 | 0.725
m1 = 0.2464 | 0.912
m1 = 0.2525 | 0.764
m1 = 0.2616 | 0.954
m1 = 0.2679 | 0.782
m1 = 0.2758 | 0.994
m1 = 0.2824 | 0.821
m1 = 0.2899 | 1.03
m1 = 0.297 | 0.862
m1 = 0.3032 | 1.06
m1 = 0.3106 | 0.908
m1 = 0.3162 | 1.1
m1 = 0.324 | 0.95
m1 = 0.3283 | 1.13
m1 = 0.3321 | 0.98
m1 = 0.3402 | 1.16
m1 = 0.3438 | 1
m1 = 0.3514 | 1.19
m1 = 0.3555 | 1.02
m1 = 0.3623 | 1.22
m1 = 0.3665 | 1.05
m1 = 0.3726 | 1.24
m1 = 0.3774 | 1.05
m1 = 0.3826 | 1.27
m1 = 0.3875 | 1.07
m1 = 0.3917 | 1.29
m1 = 0.3975 | 1.1
m1 = 0.4022 | 1.32
m1 = 0.4068 | 1.12
m1 = 0.4115 | 1.35
m1 = 0.416 | 1.14
m1 = 0.4201 | 1.38
m1 = 0.4245 | 1.16
m1 = 0.4284 | 1.4
m1 = 0.433 | 1.18
m1 = 0.4368 | 1.43
m1 = 0.4446 | 1.45

CCCCC(=O)O.OCCNCCO [diethanolamine pentanoate] + O
Details | electrical conductivity [S/m]
m1 = 0.01462 | 0.055
m1 = 0.01705 | 0.064
m1 = 0.03093 | 0.108
m1 = 0.03218 | 0.116
m1 = 0.04874 | 0.161
m1 = 0.0491 | 0.168
m1 = 0.06476 | 0.204
m1 = 0.06559 | 0.215
m1 = 0.08109 | 0.279
m1 = 0.08267 | 0.268
m1 = 0.09793 | 0.328
m1 = 0.09939 | 0.312
m1 = 0.1159 | 0.375
m1 = 0.117 | 0.365
m1 = 0.1326 | 0.42
m1 = 0.133 | 0.408
m1 = 0.1488 | 0.449
m1 = 0.1507 | 0.47
m1 = 0.163 | 0.486
m1 = 0.1668 | 0.512
m1 = 0.1779 | 0.524
m1 = 0.1838 | 0.557
m1 = 0.1916 | 0.526
m1 = 0.1994 | 0.595
m1 = 0.2058 | 0.558
m1 = 0.2152 | 0.634
m1 = 0.2197 | 0.593
m1 = 0.2297 | 0.669
m1 = 0.2336 | 0.624
m1 = 0.2447 | 0.706
m1 = 0.2467 | 0.655
m1 = 0.2584 | 0.739
m1 = 0.26 | 0.685
m1 = 0.2721 | 0.767
m1 = 0.2723 | 0.711
m1 = 0.2848 | 0.739
m1 = 0.2851 | 0.795
m1 = 0.2965 | 0.755
m1 = 0.2976 | 0.822
m1 = 0.3079 | 0.789
m1 = 0.3096 | 0.848
m1 = 0.3188 | 0.811
m1 = 0.3214 | 0.874
m1 = 0.3321 | 0.896
m1 = 0.3396 | 0.835
m1 = 0.3428 | 0.918
m1 = 0.3494 | 0.854
m1 = 0.3527 | 0.94
m1 = 0.3585 | 0.876
m1 = 0.3625 | 0.96
m1 = 0.3675 | 0.893
m1 = 0.3716 | 0.979
m1 = 0.376 | 0.914
m1 = 0.3806 | 0.999
m1 = 0.3844 | 0.925
m1 = 0.389 | 1.01
m1 = 0.3921 | 0.925
m1 = 0.3973 | 1.03
m1 = 0.3997 | 0.925
m1 = 0.4069 | 0.973
m1 = 0.4446 | 0.991
